# Assay results taken from patent US20020055130A1, “Method and product for regulating apoptosis” (National Jewish Center for Immunology and Respiratory …, priority 1997, published 2002).
# Legend:
# p42/p44 MAPK = assay: MAPK assay (EGFR662-681 peptide), L929 cells; type: cell-based, murine
# Experimental: MAPK Assay MAPK activity was measured exactly as described previously (Gardner, A. M., et al. (1994) Meth. Enzymol. 238:258-270) with the exception that MonoQ FPLC fractionation was replaced by step elution from a DEAE-Sephacel column using 0.5 M NaCl in loading buffer. The eluate was assayed in triplicate using the epidermal growth factor receptor 662-681 peptide (EGFR662-681) as a selective substrate for MAPK activity (Heasley, L. E., et al. (1994) American Journal of Physiology (Renal Fluid Electrolyte Physiol. 36) 267:F366-F373).
# JNK = JNK assay (solid state kinase assay with GST-Jun), L929 cells; type: cell-based, murine; details: for effect on JNK activity: bFGF 2.5 ng/ml, PD #098059 pretreatment; for effect on TNFα stimulation of JNK: co-stimulation or IPTG-induced Ras expression
# Experimental: JNK assay. JNK activity was measured using a solid state kinase assay in which glutathione S-transferase-c-Jun(1-79) (GST-JUN) cound to glutathione-Sepharose 4B beads was used to affinity pruify JNK and then JNK activity was measured in an in vitro kinase assay using the sepharose bound GST-Jun as a substrate (Hibi, M., et al. (1993) Genes & Development 7:2135-2148). Stimulated or unstimulated cells were lysed in 0.5% Nonidet P-40, 20 mM HEPES pH 7.2, 100 mM NaCl, 2 mM dithiothreitol, lmM EDTA, 1.0 mM phenylmethylsulfonylfluoride, 1 μg/ml aprotinin and the nuclei pelleted. Lysates were normalized for protein content. […] Binding to GST-Jun efficiently isolates the two major forms of JNK (p45and p55) and under the conditions used JNK isolation was linear for 10-250 μg of cell lysate. The lysates were rotated at 4° C. for 1-3 h. Beads were washed twice in lysis buffer and then twice in PAN (10 mM PIPES, pH 7.0, 100 mM NaCl, 21 μg/ml aprotinin). Kinase reactions were carried out at 30° C. for 15 min in 20 mM Hepes pH 7.2, 20 mM β-glycerophosphate, 10 mMp-nitrophenyl phosphate, 10 mM MgCl2, 1 mM dithiothreitol, 50 μm sodium vanadate, 10 μCi γ^32P-ATP 4300 Ci/mmole. The kinase reaction was linear from 0-30 min.
# L929 cells = assay: TNFα-mediated apoptosis of L929 cells (neutral red assay, propidium iodide staining); type: cell-based, murine; details: for effect on TNFα-mediated cell death / apoptosis / effect on the protective action of bFGF against TNFα-mediated cell death: L929 cells
# Experimental: Cell lines and culture. L929 cells (ATCC CCL1 were maintained in Dulbecco's modified Eagle's medium with 5% newborn claf serum and 5% bovine calf serum (BCS) supplemented with 100 ug/ml streptomycin and 100U/ml penicillin. The cells were grown in 10 cm dishes at 37° C. in 7.5% CO2. Cells were made quiescent where indicated by incubation in Dulbecco's modified Eagle's medium and 0.1% bovine serum albumin for 24 h. Recombinant murine TNFα and recombinant humanbFGF (147aa) were from R&D Systems, Minneapolis, Minn. Cells were pretreated where indicated with the MEK-1 inhibitor PD#098059 (Parke-Davis Pharmaceutical Corp. Ann Arbor, Mich.) for 1 h at 37° C. Cells were stimulated by incubation with the indicated cytokine or growth factor for various times at 37° C. […] Stimulation was stopped by rinsing the plates twice with ice cold phosphate buffered saline (PBS) and lysing the cells in the appropriate lysis buffer. Cells were scraped from the plates and nuclei were pelleted for 10 min at 14,000 RPM in a microcentrifuge.
# Neutral Red Assay Uptake of the dye neutral red was used as one measure of cell viability following cytokine or growth factor treatment (Finter, N. B. (1969) J. Gen Virol. 5:419-427). 1.5×10^4-2.5×10^5 L929 cells/well were plated in 12 well tissue culture dishes in 1.25 ml of media. Cells were treated for 15-20 hr with various concentrations of TNFα and/or bFGF. 2.5 μl of 1% neutral red was added to the wells and incubated for 2 hr at 37° C. PBS. The neutral red was extracted with 1.0 ml of 50% ethanol, 50 mM Na-citrate pH 4.2 and absorbency was measured at […].
# Propidium iodide staining Cells were plated on glass chamber slides (Nunc, Naperville, Ill.) at a concentration of 0.2-0.6×10^5 cells/ml. Ras expression was induced with 5 mM IPTG in Dulbecco's modified Eagle's medium with 0.1% BCS for 8-12 hr. Cells were exposed to TNFα (5 ng/ml) and/or bFGF (500 pg/ml) in Dulbecco's modified Eagle's medium with 0.1% BCS for 16 hr. The parental LACI expressing cell line (see below) was used as a control. Cells were washed twice in PBS, fixed in acetone:methanol (1:1) −20° C. for 5 min, air dried, washed twice in PBS, stained with 1 μg/ml propidium iodide (PI) in PBS for 20 min, washed in PBS, washed in H2O and mounted in 25% glycerol/PBS. PI fluorescence was observed using a Nikon inverted microscope equipped with epifluorescence and a […] filter. Images were analyzed using IP lab.
# endogenous MEKK1 protein = assay: Cleavage of endogenous MEKK1 after genotoxic stress stimuli (immunoblot); type: cell-based, Human; details: HEK293 cells
# Experimental: 200-400 μg cell lysate protein was subjected to SDS-9% PAGE and transferred to nitrocellulose membranes. Blots were performed exactly as described (Widmann et al., 1995). To detect HA-tagged proteins, the mouse monoclonal antibody 12CA5 (Babco) was used as the primary antibody, followed by a rabbit anti-mouse antibody (Cappel). HRP-conjugated protein A at a 1/5000 dilution (Zymed) and ^125I-protein A at a 1/500 dilution (Dupont NEN) were then used for enhanced chemiluminescence (ECL) detection and for quantification using the phosphorimager. To detect MEKK1, 3 different ploclonal antisera were used as primary antibodies, followed by ECL detection using HRP-protein A (see above). These sera were generated by injecting rabbits with GST proteins fused with different portions of the MEKK1 protein.
# Several genotoxic stress stimuli were applied to HEK293 cells and their effect on the MEKK1 protein was assessed.
# c-Raf-1 = assay: Raf-1 immunoprecipitate in vitro kinase assay, growth factor treated PC12 cells; type: cell-based; details: in comparison to MEKK1 or Raf-B
# Experimental: (§1) Reactions were stopped by the addition of 2× SDS sample buffer (20 μl). The samples were boiled for 3 minutes and subjected to SDS-PAGE and autoradiography. Raf-B was immunoprecipitated from the same untreated and treated PC 12 cell lysates as above with an antiserum to a COOH-terminal peptide of Raf-B (Santa Cruz Biotechnology, Inc.) and assayed similarly. Raf-1 was immunoprecipitated with an antiserum to the 12 COOH-terminal amino acids of Raf-1 (Santa Cruz Biotechnology, Inc.).
# Raf-B = Raf-B immunoprecipitate in vitro kinase assay, EGF treated PC12 cells; type: cell-based; details: EGF 30 ng/ml timecourse
# Experimental: as §1
# MEKK1 = MEKK1 immunoprecipitate in vitro kinase assay (MEK-1 phosphorylation), growth factor treated PC12 cells; type: cell-based; details: for MEKK1 activity: serum starved PC12 cells, EGF 30 ng/ml or NGF 100 ng/ml, 5 minutes
# C-Raf = assay: Raf activation assay (kinase-inactive MEK-1 phosphorylation), L929 cells; type: cell-based, murine
# Experimental: (§2) RafActivation Assay Cells were serum starved and challenged in the presence or absence of the appropriate cytokine or growth factors, as described above. Cells were lysed by scraping in ice cold RIPA buffer (50 mM Tris-HCl, pH 7.2, 150 mM NaCl, 0.1% SDS, 0.5% sodium deoxycholate, 1.0% Triton X-100, 10 mM sodium pyrophosphate, 25 mM β-glycerophosphate, 2 mM sodium vanadate, 2.1 µg/ml aprotinin) and the nuclei were pelletted. The supernatants were normalized for protein content and precleared with protein A Sepharose prior to immunoprecipitation with rabbit antiserum to the C terminus of C-Raf, rabbit anti-serum to A-Raf or rabbit antiserum to B-Raf (Santa Cruz Biotech., Santa Cruz, Calif.) and protein A Sepharose for 2-3 hr at 4° C. The beads were washed twice with ice cold RIPA and twice with PAN. A third of the immunoprecipitate was diluted with SDS sample buffer and used for immunoblot analysis. […] Wild-type recombinant MEK-1 was autophosphorylated in parallel as a marker. Reactions were terminated by the addition of 12.5 μl 5× SDS sample buffer, boiled, and subjected to SDS-PAGE and autoradiography.
# B-Raf = assay: as above; type: cell-based, murine
# Experimental: as §2
# [1] = test system: Swiss 3T3 cells and REF52 cells; assay: Beauvericin-induced apoptosis (anti-tubulin and propidium iodide staining); type: cell-based; details: 50 μM, 6 hours, 37° C.
# Experimental: A first group of transfected Swiss 3T3 cells and REF52 cells were treated with 50 μM beauvericin for 6 hours at 37° C. Beauvericin is a compound known to induce apoptosis in mammalian cells. A second group of cells were treated with a control buffer lacking beauvericin. The treated cells were then fixed in parafornaldehyde and permeabilized with saponin using protocols standard in the art. The permeabilized cells were then labelled by incubating the cells with a fluorescein-labelled anti-tubulin antibody (1:500; obtained from GIBCO, Gaithersburg, Md.) to detect cytoplasmic shrinkage or 10 μM propidium iodide (obtained from Sigma, St. Louis, Mo.) to stain DNA to detect nuclear condensation. The labelled cells were then viewed by differential fluorescent imaging using a Nikon Diaphot fluorescent microscope.
# Swiss 3T3 cells = assay: Quantitation of MEKKCOOH-induced cell death after nuclear microinjection; type: cell-based
# Experimental: Swiss 3T3 and REF52 cells were plated on acid-washed glass cover slips in Dulbecco's Modified Eagle's Medium (DMEM) and 10% bovine calf serum (BCS) or newborn calf serum (NCS). Cells were placed in DMEM/0.1% calf serum for overnight incubation prior to microinjection and used for injection at 50-70% confluence. Injections were performed with an Eppendorf automated microinjection system with needles pulled from glass capillaries on a vertical pipette puller (Kopf, Tujunga, Calif.). Cells were injected with pCMVβ-gal in the presence or absence of pCMV5MEKKCOOH or pCMV5BxBRaf at 20-100 ng/μl for each expression plasmid in 100 mM KC1, 5 mM NaPO4, pH 7.3. […] Similar results were obtained when cells were placed in 10% NCS after microinjection. Propidium iodide (5 pg/ml) was used to stain DNA. X-Gal reactions were performed for six hr.
# Seventeen hours after injection cells were fixed and stained for β-galactosidase activity with X-Gal. Injected cells attached to the coverslip were scored as positive for cell death when they were highly condensed, small round cells.
molecule,measurement,setting,value
"COc1cccc(-c2cc(=O)c3ccccc3o2)c1N [PD #098059, reference compound]",effect on bFGF stimulation of MAPK activity,p42/p44 MAPK; L929 cells,inhibited bFGF stimulation of MAPK activity
same,effect on JNK activity,JNK,did not inhibit JNK kinase or the activation of JNK
same,effect on TNFα-mediated cell death / apoptosis,L929 cells,no effect on TNFα-mediated apoptosis
same,effect on the protective action of bFGF against TNFα-mediated cell death,L929 cells,inhibited the protective action of bFGF
N.N.[Cl][Pt][Cl] [cisplatin],effect on full length MEKK1 protein,endogenous MEKK1 protein,induced the loss of full length MEKK1
same,full length MEKK1 remaining after treatment,endogenous MEKK1 protein,no full length MEKK1 protein remaining
EGF: epidermal growth factor,activation of c-Raf-1,c-Raf-1,almost negligible
same,time to peak Raf-B activity,Raf-B,3 to 5 min
same,persistence of MEKK1 activation,MEKK1; EGF 30 ng/ml timecourse,at least 30 minutes
same,MEKK1 activity,MEKK1,increased MEKK1 activity
"N17 Ras: HA-tagged inhibitory N17 Ras, IPTG-inducible in L929 cells [reference compound]",effect on bFGF stimulation of MAPK activity,p42/p44 MAPK; L929 cells,significantly blunted bFGF stimulation of MAPK
same,effect on TNFα stimulation of JNK,JNK,no effect on TNF stimulation of JNK
same,effect on TNFα-mediated cell death / apoptosis,L929 cells,did not affect TNFα induced apoptosis
same,effect on the protective action of bFGF against TNFα-mediated cell death,L929 cells,markedly inhibit the ability of bFGF to protect cells
NGF: growth factor used at 100 ng/ml on PC12 cells,activation of c-Raf-1,c-Raf-1,almost negligible
same,MEKK1 activity,MEKK1,slight increase in MEKK1 activity
bFGF: recombinant human basic fibroblast growth factor (147aa),concentrations giving maximal stimulation of MAPK activity,p42/p44 MAPK,0.25 to 0.5 ng/mL
same,MAPK activity,"p42/p44 MAPK; L929 cells, TNFα 1 ng/ml where stated",robust activation of MAPK
same,effect on JNK activity,JNK,little or no effect on JNK activity
same,effect on TNFα stimulation of JNK,JNK,did not alter the magnitude of JNK activation
same,effect on TNFα-mediated cell death / apoptosis,L929 cells,effective at blocking TNFα-mediated cell death
same,cell number,L929 cells; in the absence of TNFα,did not measurably increase cell number
same,C-Raf activation,C-Raf,activation of both B-Raf and C-Raf
same,B-Raf activation,B-Raf,activation of both B-Raf and C-Raf
beauvericin,apoptotic morphology,[1],cytoplasmic shrinkage (monitored by the anti-tubulin antibodies) and nuclear condensation
"β-gal: expression plasmid encoding β-galactosidase, injected alone as control",injected cells with an altered morphology,Swiss 3T3 cells; 48-72 hours post-injection,< 1%
same,Condensed Cells (number),"Swiss 3T3 cells; Swiss 3T3 cells, 100 ng/μl plasmids, seventeen hours after injection, highly condensed, small round cells",4
same,Condensed Cells (%),"Swiss 3T3 cells; Swiss 3T3 cells, 100 ng/μl plasmids, seventeen hours after injection, percent of cells injected",1%
